In brackets after ≈: the same amount, converted by molar mass. Several values for one entry are separate records, joined by “and”; a condition that tells them apart may be missing. Equal values may be shown once. Read-outs that look alike come from different tables or passages of the source.
Key:
NCI-H3255 (EGFR_L858R) = assay: MTS cell viability assay, 72 hours; format: cell-based, Human
Description: (§1) The cell lines that were used to assay the cellular activity of the compounds are detailed in table 3 hereafter:
(§2) Tumor cells grew as monolayer at 37° C. in a humidified atmosphere (5% CO2) in complete culture medium adapted to each cell line. The cellular activity of the compounds was assessed by measuring the viability of cancer cell in MTS assay using a tetrazolium compound (MTS, 3-(4,5-dimethylthiazol-2-yl)-5-(3-carboxymethoxy phenyl)-2-(4-sulfophenyl)-2H-tetrazolium) and an electron coupling reagent named PMS (phenazine methosulfate). MTS is bioreduced by cells into a formazan product that is directly soluble in culture medium without processing. The cells were seeded 24 hours before treatment at the appropriate density in their culture medium to be near 90% of confluence at the end of experiment in vehicle treated conditions. After addition of compounds, the cells were incubated for 72 hours.

NCI-H441 (EGFR WT) = assay: MTS cell viability assay, 72 hours; format: cell-based, Human; conditions: read-out: Cellular IC50 NCI-H441 (EGFR WT)
Description: as §1, §2

[1] = system: panel of 92 wild-type kinases; assay: kinase selectivity, residual activity at 100 nM and 1 μM; conditions: for selectivity score S(50): 92 wild-type kinases
Description: Corresponding kinases and substrates were always tested at the ATP Km concentration.

[2] = molecular target: T1, EGFR L858R (human, 672-1210) (Homo sapiens, UniProt P00533, L858R); assay: radiometric protein kinase assay (33PanQinase Activity Assay); conditions: Tests 1-3 are repeat determinations; read-out: Biochemical IC50 EGFR L858R
T1 construct: (human, 672-1210)
Description: (§3) The compounds were tested in 100% DMSO, all recombinant protein kinases and substrates with respective concentration are described in table 1.

[3] = molecular target: T2, EGFR wt (human, 672-1210) (Homo sapiens, UniProt P00533); assay: as above; conditions: Tests 1-3 are repeat determinations; read-out: Biochemical IC50 EGFR WT (activated)
T2 construct: (human, 672-1210)
Description: as §3

[4] = molecular target: T3, EGFR T790M/L858R (human, 672-1210) (Homo sapiens, UniProt P00533, L858R/T790M); assay: as above; conditions: Tests 1-3 are repeat determinations; read-out: Biochemical IC50 EGFR L858R/T790M
T3 construct: (human, 672-1210)
Description: as §3

T790M (EGFR mutant) = T790M (EGFR mutant) (Homo sapiens, UniProt P00533, L858R/T790M); assay: as above; conditions: Test 1; read-out: Biochemical IC50 T790M
Description: A radiometric protein kinase assay (^33PanQinase® Activity Assay) was used for measuring the biochemical kinase activity of 3 protein kinases, EGFR wild-type and 2 EGFR mutants (L858R, L858R/T790M). The compounds were tested in 100% DMSO, all recombinant protein kinases and substrates with respective concentration are described in table 1.

[5] = system: NCI-H1975 tumors (double mutation); assay: in vivo specificity: competition for uptake of Compound (I); set-up: species or system rats; conditions: gefitinib 2 mg/rat or Compound (Ia) 1 mg/rat
[6] = metabolic microsomal stability, human liver microsomes; format: in vitro ADME; conditions: pH 7.4, 0.5 mg/mL protein
Description: (§4) Metabolic microsomal stability was performed on human and rat liver microsomes. Microsomes (final protein concentration 0.5 mg/mL), 0.1 M phosphate buffer pH 7.4 and test compound (final substrate concentration=3 μM; final DMSO concentration=0.25%) are pre-incubated at 37° C. prior to the addition of NADPH (final concentration=1 mM) to initiate the reaction. Analysis is done with generic LC-MS/MS conditions to determine half-life and intrinsic clearance using standard equations. […] In human, Compound (Ia) metabolic stability was better than in rat and favorable for clinical studies.

[7] = system: NCI-H3255 tumors (simple mutation); assay: in vivo specificity: competition for uptake of Compound (I); set-up: species or system rats; conditions: gefitinib 2 mg/rat or Compound (Ia) 1 mg/rat
[8] = molecular target: constitutively active EGFR in NCI-H3255 (Homo sapiens, UniProt P00533, L858R); assay: EGFR Y1068 phosphorylation, Western blot
[9] = metabolic microsomal stability, rat liver microsomes; format: in vitro ADME; conditions: pH 7.4, 0.5 mg/mL protein
Description: as §4

[10] = molecular target: double mutant EGFR expressed by NCI-H1975 (Homo sapiens, UniProt P00533, L858R/T790M); assay: EGFR Y1068 phosphorylation, Western blot
[11] = molecular target: EGFR phosphorylation in NCI-H441 (Homo sapiens, UniProt P00533); assay: EGFR Y1068 phosphorylation, Western blot; conditions: NCI-H441, 10 ng/ml EGF
MCF-7 = assay: MTS cell viability assay, 72 hours; format: cell-based; conditions: Homo sapiens, MCF7, 72 h, negative control, does not express EGFR, read-out: Cellular IC50 MCF-7
Description: as §1, §2

[12] = system: NCI-H1975 (EGFR L858R/T790M); assay: MTS cell viability assay, 72 hours; format: cell-based; conditions: Homo sapiens, NCI-H1975, 72 h, read-out: Cellular IC50 NCI-H1975 (EGFR L858R/T790M)
Description: as §1, §2

WT NCI-H441 tumors = assay: in vivo specificity: competition for uptake of Compound (I); set-up: species or system rats; conditions: gefitinib 2 mg/rat or Compound (Ia) 1 mg/rat
[13] = kinetic solubility in PBS at pH 7.4; format: physicochemical; conditions: pH 7.4, aqueous buffer, kinetic from dmso stock
Description: The kinetic solubility of the compounds was assessed in PBS at pH 7.4.

[14] = Homo sapiens, NCI-H3255, 72 h, read-out: Cellular IC50 NCI-H3255 (EGFR_L858R)

T2 sequence (P00533 672-1210): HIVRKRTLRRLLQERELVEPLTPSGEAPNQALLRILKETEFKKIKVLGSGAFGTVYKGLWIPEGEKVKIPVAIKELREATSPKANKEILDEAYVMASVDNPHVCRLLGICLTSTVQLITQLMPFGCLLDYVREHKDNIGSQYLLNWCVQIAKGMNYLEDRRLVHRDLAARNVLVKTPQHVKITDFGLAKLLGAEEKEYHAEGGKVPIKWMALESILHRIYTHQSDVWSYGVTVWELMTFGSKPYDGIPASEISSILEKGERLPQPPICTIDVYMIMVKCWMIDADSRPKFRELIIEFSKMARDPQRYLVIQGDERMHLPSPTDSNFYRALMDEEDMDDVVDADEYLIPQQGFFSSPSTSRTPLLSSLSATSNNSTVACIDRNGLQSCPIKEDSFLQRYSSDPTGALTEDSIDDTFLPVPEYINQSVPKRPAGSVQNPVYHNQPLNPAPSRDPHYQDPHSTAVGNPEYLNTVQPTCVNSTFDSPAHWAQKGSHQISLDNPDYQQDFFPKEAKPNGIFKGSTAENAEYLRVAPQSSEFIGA
T3 sequence (P00533 672-1210 T790M/L858R): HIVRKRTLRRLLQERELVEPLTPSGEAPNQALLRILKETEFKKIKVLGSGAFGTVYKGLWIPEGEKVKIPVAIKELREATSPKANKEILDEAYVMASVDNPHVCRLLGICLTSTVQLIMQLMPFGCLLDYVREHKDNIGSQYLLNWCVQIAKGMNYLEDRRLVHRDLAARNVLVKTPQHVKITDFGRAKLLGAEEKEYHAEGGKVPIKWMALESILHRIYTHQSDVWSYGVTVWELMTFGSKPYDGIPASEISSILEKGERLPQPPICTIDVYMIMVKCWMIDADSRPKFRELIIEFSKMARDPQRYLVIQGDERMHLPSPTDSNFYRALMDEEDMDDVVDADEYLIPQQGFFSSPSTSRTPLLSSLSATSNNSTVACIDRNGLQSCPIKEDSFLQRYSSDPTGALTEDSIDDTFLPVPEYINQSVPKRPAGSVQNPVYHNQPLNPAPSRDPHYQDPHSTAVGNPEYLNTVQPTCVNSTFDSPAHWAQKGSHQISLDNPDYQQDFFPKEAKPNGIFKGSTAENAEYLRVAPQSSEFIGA
T1 sequence (P00533 672-1210 L858R): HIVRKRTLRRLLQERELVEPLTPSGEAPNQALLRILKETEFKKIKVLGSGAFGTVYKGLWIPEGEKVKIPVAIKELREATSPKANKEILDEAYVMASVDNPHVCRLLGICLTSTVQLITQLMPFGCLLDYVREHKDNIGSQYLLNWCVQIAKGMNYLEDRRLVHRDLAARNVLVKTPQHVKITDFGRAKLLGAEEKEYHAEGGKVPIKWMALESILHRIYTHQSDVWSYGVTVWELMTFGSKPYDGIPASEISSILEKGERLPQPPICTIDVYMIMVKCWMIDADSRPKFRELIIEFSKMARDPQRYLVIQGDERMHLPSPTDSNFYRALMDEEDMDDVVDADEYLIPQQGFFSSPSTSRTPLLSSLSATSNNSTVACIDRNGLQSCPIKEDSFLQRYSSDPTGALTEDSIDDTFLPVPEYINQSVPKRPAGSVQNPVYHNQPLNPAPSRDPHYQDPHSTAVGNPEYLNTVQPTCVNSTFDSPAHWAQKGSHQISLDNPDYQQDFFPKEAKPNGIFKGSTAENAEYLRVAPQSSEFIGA
T790M (EGFR mutant), sequence (P00533 672-1210 T790M/L858R): as the sequence (P00533 672-1210 T790M/L858R) above
constitutively active EGFR in NCI-H3255, sequence (P00533 25-1210 L858R): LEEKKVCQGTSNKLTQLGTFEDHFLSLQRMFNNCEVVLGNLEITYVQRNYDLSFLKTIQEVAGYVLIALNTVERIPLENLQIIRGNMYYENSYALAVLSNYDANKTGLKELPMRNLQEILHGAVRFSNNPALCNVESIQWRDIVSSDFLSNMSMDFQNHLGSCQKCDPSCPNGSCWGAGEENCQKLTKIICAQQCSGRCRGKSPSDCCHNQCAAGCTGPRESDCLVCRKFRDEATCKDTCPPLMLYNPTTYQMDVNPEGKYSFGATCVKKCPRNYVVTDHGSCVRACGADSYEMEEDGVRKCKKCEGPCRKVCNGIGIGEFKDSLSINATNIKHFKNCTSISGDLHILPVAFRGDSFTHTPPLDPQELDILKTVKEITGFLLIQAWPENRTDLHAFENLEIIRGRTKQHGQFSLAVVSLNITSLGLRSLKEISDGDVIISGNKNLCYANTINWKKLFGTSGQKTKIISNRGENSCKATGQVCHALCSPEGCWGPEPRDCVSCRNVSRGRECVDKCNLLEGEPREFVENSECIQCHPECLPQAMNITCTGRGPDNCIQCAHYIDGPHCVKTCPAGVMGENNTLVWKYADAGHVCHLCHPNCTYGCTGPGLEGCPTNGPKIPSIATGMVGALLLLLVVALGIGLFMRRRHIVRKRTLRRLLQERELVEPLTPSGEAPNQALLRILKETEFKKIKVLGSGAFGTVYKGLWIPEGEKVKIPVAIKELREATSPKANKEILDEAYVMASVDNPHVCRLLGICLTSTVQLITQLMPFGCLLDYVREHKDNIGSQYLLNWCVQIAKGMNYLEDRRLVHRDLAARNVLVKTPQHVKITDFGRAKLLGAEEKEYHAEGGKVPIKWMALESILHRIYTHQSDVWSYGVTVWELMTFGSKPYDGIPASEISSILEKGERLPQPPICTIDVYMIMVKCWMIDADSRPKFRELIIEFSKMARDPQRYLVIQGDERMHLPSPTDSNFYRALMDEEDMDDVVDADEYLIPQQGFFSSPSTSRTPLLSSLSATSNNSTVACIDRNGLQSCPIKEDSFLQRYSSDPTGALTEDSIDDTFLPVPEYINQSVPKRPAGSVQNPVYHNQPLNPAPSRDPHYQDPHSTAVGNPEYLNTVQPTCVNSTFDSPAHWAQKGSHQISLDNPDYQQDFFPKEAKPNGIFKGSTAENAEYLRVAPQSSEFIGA
double mutant EGFR expressed by NCI-H1975, sequence (P00533 25-1210 T790M/L858R): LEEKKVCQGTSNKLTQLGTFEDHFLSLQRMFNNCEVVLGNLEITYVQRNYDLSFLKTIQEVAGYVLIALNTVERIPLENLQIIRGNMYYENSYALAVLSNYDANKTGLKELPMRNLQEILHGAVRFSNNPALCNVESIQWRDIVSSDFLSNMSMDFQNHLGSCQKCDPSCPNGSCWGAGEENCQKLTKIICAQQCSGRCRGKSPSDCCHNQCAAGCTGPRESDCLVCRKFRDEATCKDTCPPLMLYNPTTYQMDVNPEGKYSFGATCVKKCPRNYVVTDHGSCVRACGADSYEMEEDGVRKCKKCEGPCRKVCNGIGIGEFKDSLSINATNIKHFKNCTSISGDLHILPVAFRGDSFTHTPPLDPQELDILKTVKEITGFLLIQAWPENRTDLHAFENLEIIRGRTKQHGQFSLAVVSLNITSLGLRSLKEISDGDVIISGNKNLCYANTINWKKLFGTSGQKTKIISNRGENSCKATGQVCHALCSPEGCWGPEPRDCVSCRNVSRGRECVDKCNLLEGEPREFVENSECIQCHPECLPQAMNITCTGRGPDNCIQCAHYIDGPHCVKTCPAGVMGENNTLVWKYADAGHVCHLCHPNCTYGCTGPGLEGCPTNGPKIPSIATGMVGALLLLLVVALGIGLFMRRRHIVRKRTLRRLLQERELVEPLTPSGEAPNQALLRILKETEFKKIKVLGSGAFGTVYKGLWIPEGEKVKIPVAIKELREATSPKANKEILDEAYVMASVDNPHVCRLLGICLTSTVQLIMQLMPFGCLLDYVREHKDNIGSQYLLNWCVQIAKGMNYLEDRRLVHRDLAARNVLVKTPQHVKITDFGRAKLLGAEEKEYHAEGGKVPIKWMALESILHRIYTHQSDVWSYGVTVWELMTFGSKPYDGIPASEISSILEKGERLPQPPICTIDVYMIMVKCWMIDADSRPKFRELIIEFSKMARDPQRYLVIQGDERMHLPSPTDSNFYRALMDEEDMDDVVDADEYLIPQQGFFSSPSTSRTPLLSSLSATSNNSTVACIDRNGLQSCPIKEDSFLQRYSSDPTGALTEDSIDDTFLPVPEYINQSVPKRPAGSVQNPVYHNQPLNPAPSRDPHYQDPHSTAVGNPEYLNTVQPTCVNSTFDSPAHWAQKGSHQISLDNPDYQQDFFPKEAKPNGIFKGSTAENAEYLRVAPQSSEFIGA

IC50 (NCI-H441 (EGFR WT); Homo sapiens, NCI-H441, 72 h) [nM]	selectivity score S(50) ([1]; at 100 nM)	selectivity score S(50) ([1]; at 1 μM)	IC50 [2]	IC50 [3]	IC50 [4]	IC50 (T790M (EGFR mutant)) [nM]	IC50 (NCI-H3255 (EGFR_L858R); [14]) [nM]	Structure (SMILES)	change of uptake of Compound (I) after competition (WT NCI-H441 tumors)	other results
34700	0.6%	2.8%	2.7 nM	3.1 nM	77.7 nM	54.7		CC(C)[C@H]1NC(=O)Cc2ccc(Cl)cc2Nc2ncnc3cc(OCCF)c(cc23)OCCCNC1=O [Compound (IIIa)]		IC50 (NCI-H3255 (EGFR_L858R); Homo sapiens, NCI-H3255, 72 h, read-out: mean IC50 on NCI-H3255): 6.1 nM; IC50 (NCI-H441 (EGFR WT)): > 25000 nM
> 25000	2.2% and 2.5%	11.9% and 13%	< 10 nM and 6.3 nM	< 10 nM and 5.9 nM	924 nM	1010	30	CC(C)[C@@H]1NC(=O)Cc2ccc(Cl)cc2Nc2ncnc3cc(OCCF)c(cc23)OCCCNC1=O [Compound (IIa)]		IC50 (NCI-H3255 (EGFR_L858R); read-out: Cellular IC50 NCI-H3255 (EGFR_L858R)): 49 nM; wild-type kinases inhibited for more than 50% ([1]; at 100 nM): EGFR and RIPK2 were the only wild-type kinases inhibited for more than 50%; number of other kinases with inhibition of >50% ([1]; at 1 μM): 9
34700 ± 24000			3 nM and 8 nM and 4.1 nM	3.2 nM and 5 nM and 5.7 nM	372 nM and 990 nM and 246 nM		6 ± 2	CC(C)C1NC(=O)Cc2ccc(Cl)cc2Nc2ncnc3cc(OCCF)c(cc23)OCCCNC1=O (stereo not drawn) [Compound (Ia)]	5%	change of T/M ratios of Compound (I) after competition [5]: −55%; microsomal CLint at 3 μM [6]: 7.76 ± 2.53 µL/min/mg; half-life at 3 μM ([6]; read-out: human microsomal stability t1/2): 2.98 h; decrease of T/M ratios of Compound (I) by competition [7]: 52%; concentration at which full inhibition of constitutively active EGFR was observed [8]: ~100 nM; microsomal CLint at 3 μM [9]: 37.9 ± 1.89 µL/min/mg; half-life at 3 μM ([9]; read-out: rat microsomal stability t1/2): 0.608 h; inhibition of constitutively active double mutant EGFR [10]: partially inhibit EGFR activity at 10 μM; inhibition of EGF-induced EGFR Y1068 phosphorylation [11]: almost full inhibition observed at 1 μM; IC50 (MCF-7): 62100 nM; IC50 [12]: 5000 ± 1400 nM; solubility kinetic [13]: 88 µM (≈ 46.6 µg/mL)
								COc1cc2ncnc(Nc3ccc(F)c(Cl)c3)c2cc1OCCCN1CCOCC1 [Gefitinib, gefitinib, reference compound]	+16%	
